Experimental findings from PubChem BioAssay (NCI) are described below.

Some test systems named below: HCT-15 colon; OVCAR-3 ovarian; IGROV1 ovarian; MDA-MB-435; TK-10 renal; SNB-19 CNS; SF-295 CNS; MALME-3M melanoma; NCI-H522 lung; K-562 leukemia.
Common to all, as to test: inhibition of tumour cell growth, NCI panel, 48 h

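All cell lines were grown in 96-well plates and treated with compound for 48 hours. At the TGI there is no net growth.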 Where a SMILES comes first, the peptide text is derived from it. The star is where a group is joined. OSu = O=C1CCC(=O)N1O* A value given as a limit tells only on which side of the number the result lay.

Consider `C/C(O)=C(\C=NC(=S)c1ccncc1)C(=O)Nc1ccccc1C`, for which the TGI in the assay on HCT-15 colon, in the assay with OVCAR-3 ovarian, in the assay with IGROV1 ovarian, in the assay on MDA-MB-435, in the assay on TK-10 renal and with SNB-19 CNS was more than 100 µM each time. For the same compound, the TGI in the assay with SF-295 CNS is more than 100 µM.

`COc1ccc(/C(Cl)=C(\C=O)c2ccc(Cl)cc2)cc1OC`: the TGI was more than 100 µM in the assay with HCT-15 colon; more than 100 µM in the assay with MALME-3M melanoma; 31.7 µM with OVCAR-3 ovarian; 30.1 µM in the assay on IGROV1 ovarian; 6.27 µM in the assay with NCI-H522 lung; 71.3 µM in the assay with K-562 leukemia. Also, the TGI in the assay with TK-10 renal was 31.1 µM; in the assay on SNB-19 CNS, more than 100 µM; in the assay on SF-295 CNS it was 14.4 µM.

In the case of `C/C(O[Si](C(C)C)(C(C)C)C(C)C)=C(\C)C(=O)N(C)c1ccccc1Cl`, the TGI with HCT-15 colon, in the assay with MALME-3M melanoma, in the assay on OVCAR-3 ovarian, with IGROV1 ovarian, in the assay with NCI-H522 lung and in the assay with MDA-MB-435 was more than 100 µM each time. Moreover, the TGI in the assay on TK-10 renal, in the assay with SNB-19 CNS and in the assay with SF-295 CNS was more than 100 µM each time.

For the compound `C#CC(O)/C=C/C(O)CCCC(O)CC#CC(O)C#CCCCCC(O)/C=C/CCCC(O)/C=C/CCCCCCCCCCCCCC(O)C(O)C#CC(=O)O` (stereo not given), the TGI in the assay on HCT-15 colon, in the assay with MALME-3M melanoma, with IGROV1 ovarian, with NCI-H522 lung, with K-562 leukemia and with MDA-MB-435 was more than 25 µM in each case. In addition, the TGI in the assay with TK-10 renal, with SNB-19 CNS and in the assay on SF-295 CNS was more than 25 µM throughout.

With `O=C1C(Cl)=C(NCCF)C(=O)c2ncccc21`, the TGI stood at 4.87 µM in the assay with HCT-15 colon; 2.98 µM in the assay with MALME-3M melanoma; 5.45 µM in the assay on OVCAR-3 ovarian; 3.43 µM in the assay on IGROV1 ovarian; 2.82 µM in the assay on K-562 leukemia; 0.408 µM with MDA-MB-435. The TGI was determined as 3.65 µM in the assay with TK-10 renal, 2.99 µM with SNB-19 CNS and 3.21 µM in the assay with SF-295 CNS.

Regarding `COc1ccc2oc(C(=O)N3CC(CCl)c4ccc(N)cc43)cc2c1` (stereo not given), the TGI in the assay with HCT-15 colon is 3.18 µM; in the assay with OVCAR-3 ovarian, more than 100 µM; in the assay with IGROV1 ovarian it was 0.782 µM; in the assay with NCI-H522 lung, 0.0828 µM; with K-562 leukemia, more than 63.4 µM; in the assay with MDA-MB-435, 1.24 µM. In addition, the TGI in the assay with TK-10 renal was 7.12 µM; in the assay on SNB-19 CNS, 19.5 µM; in the assay with SF-295 CNS it was more than 100 µM.

Turning to `CCOC(=O)/C=C(/C(=O)OCC)n1ccc(=O)n(Cc2cnnn2CCCCOC(C)=O)c1=O`, the TGI in the assay on OVCAR-3 ovarian was more than 100 µM; in the assay with IGROV1 ovarian, more than 100 µM; with NCI-H522 lung, 42.6 µM; in the assay on K-562 leukemia it was more than 100 µM; in the assay on MDA-MB-435, more than 100 µM; in the assay with TK-10 renal, more than 100 µM. Also, the TGI with SNB-19 CNS and in the assay on SF-295 CNS was more than 100 µM each time.

For the compound `[N-]=[N+]=Nc1ccc2c(c1)Sc1ccccc1N2CCCCN1CCN(C(=O)CCNC(=O)Cc2ccc(C(=O)c3ccccc3)cc2)CC1`, the TGI with HCT-15 colon is 8.52 µM; in the assay on MALME-3M melanoma, 10.7 µM; with OVCAR-3 ovarian, 18.3 µM; in the assay with IGROV1 ovarian, more than 35.5 µM; in the assay with NCI-H522 lung, 7.51 µM; in the assay on MDA-MB-435, 6.44 µM. Also, the TGI in the assay with TK-10 renal is more than 75.6 µM; in the assay on SNB-19 CNS, more than 56.4 µM; in the assay with SF-295 CNS it was 10.1 µM.

For the compound `COc1cc(OC)c(OC)cc1/C=C/c1cc[n+](C)c2ccccc12`, the TGI is more than 100 µM in the assay on HCT-15 colon; more than 100 µM with MALME-3M melanoma; more than 100 µM in the assay on IGROV1 ovarian; 19.4 µM in the assay on K-562 leukemia; more than 100 µM in the assay on TK-10 renal; more than 100 µM in the assay with SNB-19 CNS. The compound further came in with a TGI with SF-295 CNS of more than 100 µM.

As for `CCOC(=O)C1(C(=O)OCC)C=C(c2ccccc2)N(C2OC(COC(C)=O)C(OC(C)=O)C(OC(C)=O)C2OC(C)=O)C1=S` (stereo not given), the TGI with HCT-15 colon, in the assay on MALME-3M melanoma, in the assay with OVCAR-3 ovarian, in the assay on IGROV1 ovarian, in the assay with NCI-H522 lung and in the assay on MDA-MB-435 was more than 100 µM each time. Moreover, the TGI in the assay on SNB-19 CNS and in the assay on SF-295 CNS was more than 100 µM throughout.

As for `OC12c3ccccc3C1CCCCCC21OCCCO1` (stereo not given), the TGI with HCT-15 colon, in the assay with MALME-3M melanoma, in the assay on OVCAR-3 ovarian, in the assay with IGROV1 ovarian, with NCI-H522 lung and in the assay on K-562 leukemia was more than 100 µM each time. Further, the TGI with TK-10 renal, in the assay with SNB-19 CNS and with SF-295 CNS was more than 100 µM each time.

For the compound `Cc1ccc(S(=O)(=O)NC(=O)NC(CCC(N)=O)C(=O)O)cc1` (stereo not given), the TGI with HCT-15 colon, with MALME-3M melanoma, in the assay on IGROV1 ovarian, in the assay on NCI-H522 lung, with K-562 leukemia and in the assay on TK-10 renal was more than 100 µM in each case. Also, the TGI with SNB-19 CNS and in the assay on SF-295 CNS was more than 100 µM in each case.

As to `O=C1NC(=Nc2ccccc2)C(=Nc2ccccc2)N1c1ccccc1`, the TGI was found to be 28.2 µM with HCT-15 colon; 31.6 µM with MALME-3M melanoma; 31 µM in the assay on IGROV1 ovarian; 11.5 µM with NCI-H522 lung; 72.2 µM in the assay with K-562 leukemia; 29.7 µM with MDA-MB-435. The results for the TGI in the assay with TK-10 renal, in the assay on SNB-19 CNS and in the assay with SF-295 CNS were 30.8 µM, 31.4 µM and 29.4 µM, respectively.

Consider `NCCCCC(NC(=O)C(N)Cc1ccc(O)cc1)C(=O)NC(Cc1ccc(O)cc1)C(=O)NC(CCCCN)C(=O)ON1C(=O)CCC1=O` (stereo not given) (H-YKYK-OSu; configuration not given here), for which the TGI in the assay with HCT-15 colon, in the assay on MALME-3M melanoma, in the assay on IGROV1 ovarian, in the assay on K-562 leukemia, in the assay with TK-10 renal and in the assay with SNB-19 CNS was more than 100 µM throughout.

Regarding `CC[n+]1c(/C=C/c2ccc(N(CCCl)CCCl)cc2)ccc2cc(I)ccc21`, the TGI with HCT-15 colon was found to be 28.1 µM; in the assay on MALME-3M melanoma it was 2.93 µM; in the assay on OVCAR-3 ovarian, 1.12 µM; in the assay with IGROV1 ovarian, 8.27 µM; with NCI-H522 lung it was 1.64 µM; in the assay on K-562 leukemia, 1.6 µM. Also, the TGI was determined as 9.04 µM in the assay with TK-10 renal, 2.35 µM in the assay with SNB-19 CNS and 5.76 µM in the assay on SF-295 CNS.
